Measured values from patent US9708314B2, “Heterocyclic amide compound” (NISSAN CHEMICAL INDUSTRIES, LTD., priority 2013, dated 2017).

Assays:
Format in all cases: in vivo
[1] = test system: directly sowed Oryza sativa; assay: Test Example 3: effect on crop by application to foliage (Wagner pot, water depth 0.1-0.5 cm); settings: Nineteenth Table, application to foliage
How it was run: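 Visual 0–5 rating of herbicidal ratio, taken 3 weeks after foliar spray of a diluted emulsion formulation at rates expressed as g/ha. Plants had been sown in alluvial soil under 0.1–0.5 cm water and grown 14 days at 25–30 °C under glass before application.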

[2] = test system: transplanted Oryza sativa; assay: Test Example 1: effect on crop, application before weed generation in submerged conditions; settings: Seventeenth Table
How it was run: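 Submerged pot test: alluvial soil, 4 cm water, seeds sown mixed, 2.5-leaf rice transplanted; emulsion in water applied to surface day of sowing, dose g/ha; greenhouse 25–30° C.; 3 wk; 0–5 rating.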

Apera spica-venti. = assay: Test Example 4: herbicidal effect by application to foliage (diluvial soil, plastic box); settings: application to foliage
How it was run: (§1)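 Read-out is a 0–5 visual grade of herbicidal ratio (5: ≥90%, almost withered; 0: ≤5%) taken three weeks after treatment. Compound was applied as a diluted emulsion to stem and leaf parts of 14-day greenhouse-grown plants (25° C. to 30° C.) at rates expressed as g/ha.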

Chenopodium album = assay: as above; settings: application to foliage
How it was run: as §1

Avena fatua = assay: as above; settings: application to foliage
How it was run: as §1

Abutilon theophrasti = assay: as above; settings: application to foliage
How it was run: as §1

Veronica persica = assay: as above; settings: application to foliage
How it was run: as §1

Galium spurium = assay: as above; settings: application to foliage
How it was run: as §1

[3] = test system: Echinochloa crus-galli var. crus-galli; assay: as above; settings: application to foliage
How it was run: as §1

[4] = application herbicide amount 320 g/ha
[5] = application herbicide amount 260 g/ha

Structure (SMILES) | b (effect on crop grade) [1, 4] | a (transplanted Oryza sativa) effect on crop grade [2, 4] | herbicidal effect, L (Apera spica-venti.) (Apera spica-venti.; 320 g/ha) | herbicidal effect, O (Chenopodium album) (Chenopodium album; 320 g/ha) | herbicidal effect, I (Avena fatua) (Avena fatua; 320 g/ha) | herbicidal effect, M (Abutilon theophrasti) (Abutilon theophrasti; 320 g/ha) | herbicidal effect, R (Veronica persica) (Veronica persica; 320 g/ha) | herbicidal effect, Q (Galium spurium) (Galium spurium; 320 g/ha) | herbicidal effect, H (Echinochloa crus-galli var. crus-galli) ([3]; 320 g/ha) | b (effect on crop grade) [1, 5] | a (transplanted Oryza sativa) effect on crop grade [2, 5] | herbicidal effect, L (Apera spica-venti.) (Apera spica-venti.; 256 g/ha) | herbicidal effect, O (Chenopodium album) (Chenopodium album; 256 g/ha) | herbicidal effect, I (Avena fatua) (Avena fatua; 256 g/ha) | herbicidal effect, M (Abutilon theophrasti) (Abutilon theophrasti; 256 g/ha) | herbicidal effect, R (Veronica persica) (Veronica persica; 256 g/ha) | herbicidal effect, Q (Galium spurium) (Galium spurium; 256 g/ha) | herbicidal effect, H (Echinochloa crus-galli var. crus-galli) ([3]; 256 g/ha)
C#CCSc1nnc2c(C(=O)Nc3nnnn3C)ccc(C(F)(F)F)n12 [2-103] | 1 (Herbicidal ratio of 5% or more and less than 20%) | 3 (Herbicidal ratio of 40% or more and less than 70%) | 2 (Herbicidal ratio of 20% or more and less than 40%) | 5 (Herbicidal ratio of 90% or more (almost completely withered)) | 1 (Herbicidal ratio of 5% or more and less than 20%) | 4 (Herbicidal ratio of 70% or more and less than 90%) | 4 (Herbicidal ratio of 70% or more and less than 90%) | 4 (Herbicidal ratio of 70% or more and less than 90%) | 5 (Herbicidal ratio of 90% or more (almost completely withered)) | – | – | – | – | – | – | – | – | –
CC#Cc1nnc2c(C(=O)Nc3nnnn3C)ccc(C(F)(F)F)n12 [2-106] | 0 (Herbicidal ratio of 5% or less (almost no effect)) | 2 (Herbicidal ratio of 20% or more and less than 40%) | 0 (Herbicidal ratio of 5% or less (almost no effect)) | 5 (Herbicidal ratio of 90% or more (almost completely withered)) | 1 (Herbicidal ratio of 5% or more and less than 20%) | 5 (Herbicidal ratio of 90% or more (almost completely withered)) | 3 (Herbicidal ratio of 40% or more and less than 70%) | 3 (Herbicidal ratio of 40% or more and less than 70%) | 3 (Herbicidal ratio of 40% or more and less than 70%) | – | – | – | – | – | – | – | – | –
CC(=O)OCc1nnc2c(C(=O)Nc3nnnn3C)ccc(C(F)(F)F)n12 [2-107] | 4 (Herbicidal ratio of 70% or more and less than 90%) | 1 (Herbicidal ratio of 5% or more and less than 20%) | 0 (Herbicidal ratio of 5% or less (almost no effect)) | 5 (Herbicidal ratio of 90% or more (almost completely withered)) | 1 (Herbicidal ratio of 5% or more and less than 20%) | 5 (Herbicidal ratio of 90% or more (almost completely withered)) | 5 (Herbicidal ratio of 90% or more (almost completely withered)) | 4 (Herbicidal ratio of 70% or more and less than 90%) | 5 (Herbicidal ratio of 90% or more (almost completely withered)) | – | – | – | – | – | – | – | – | –
Cn1nnnc1NC(=O)c1ccc(C(F)(F)F)n2c(CO)nnc12 [2-108] | 4 (Herbicidal ratio of 70% or more and less than 90%) | 0 (Herbicidal ratio of 5% or less (almost no effect)) | 0 (Herbicidal ratio of 5% or less (almost no effect)) | 5 (Herbicidal ratio of 90% or more (almost completely withered)) | 1 (Herbicidal ratio of 5% or more and less than 20%) | 5 (Herbicidal ratio of 90% or more (almost completely withered)) | 5 (Herbicidal ratio of 90% or more (almost completely withered)) | 4 (Herbicidal ratio of 70% or more and less than 90%) | 5 (Herbicidal ratio of 90% or more (almost completely withered)) | – | – | – | – | – | – | – | – | –
Cn1nnnc1NC(=O)c1ccc(C(F)(F)F)n2c(C=O)nnc12 [2-109] | – | – | – | – | – | – | – | – | – | 2 (Herbicidal ratio of 20% or more and less than 40%) | 0 (Herbicidal ratio of 5% or less (almost no effect)) | 0 (Herbicidal ratio of 5% or less (almost no effect)) | 5 (Herbicidal ratio of 90% or more (almost completely withered)) | 1 (Herbicidal ratio of 5% or more and less than 20%) | 5 (Herbicidal ratio of 90% or more (almost completely withered)) | 5 (Herbicidal ratio of 90% or more (almost completely withered)) | 3 (Herbicidal ratio of 40% or more and less than 70%) | 4 (Herbicidal ratio of 70% or more and less than 90%)
Cn1nnnc1NC(=O)c1ccc(C(F)(F)F)n2c(C3(C)CC3(Cl)Cl)nnc12 (stereo not drawn) [2-110] | 3 (Herbicidal ratio of 40% or more and less than 70%) | 4 (Herbicidal ratio of 70% or more and less than 90%) | 3 (Herbicidal ratio of 40% or more and less than 70%) | 5 (Herbicidal ratio of 90% or more (almost completely withered)) | 3 (Herbicidal ratio of 40% or more and less than 70%) | 5 (Herbicidal ratio of 90% or more (almost completely withered)) | 5 (Herbicidal ratio of 90% or more (almost completely withered)) | 5 (Herbicidal ratio of 90% or more (almost completely withered)) | 5 (Herbicidal ratio of 90% or more (almost completely withered)) | – | – | – | – | – | – | – | – | –
Cn1nnnc1NC(=O)c1ccc(C(F)(F)F)n2c(=O)n(C)nc12 [6-002] | 0 (Herbicidal ratio of 5% or less (almost no effect)) | 0 (Herbicidal ratio of 5% or less (almost no effect)) | 0 (Herbicidal ratio of 5% or less (almost no effect)) | 5 (Herbicidal ratio of 90% or more (almost completely withered)) | 1 (Herbicidal ratio of 5% or more and less than 20%) | 5 (Herbicidal ratio of 90% or more (almost completely withered)) | 4 (Herbicidal ratio of 70% or more and less than 90%) | 3 (Herbicidal ratio of 40% or more and less than 70%) | 5 (Herbicidal ratio of 90% or more (almost completely withered)) | – | – | – | – | – | – | – | – | –
CCn1nc2c(C(=O)Nc3nnnn3C)ccc(C(F)(F)F)n2c1=O [6-004] | 3 (Herbicidal ratio of 40% or more and less than 70%) | 0 (Herbicidal ratio of 5% or less (almost no effect)) | 1 (Herbicidal ratio of 5% or more and less than 20%) | 5 (Herbicidal ratio of 90% or more (almost completely withered)) | 3 (Herbicidal ratio of 40% or more and less than 70%) | 5 (Herbicidal ratio of 90% or more (almost completely withered)) | 3 (Herbicidal ratio of 40% or more and less than 70%) | 4 (Herbicidal ratio of 70% or more and less than 90%) | 5 (Herbicidal ratio of 90% or more (almost completely withered)) | – | – | – | – | – | – | – | – | –
CC(C)c1nc2c(C(=O)Nc3nnnn3C)ccc(C(F)(F)F)n2n1 [7-002] | 0 (Herbicidal ratio of 5% or less (almost no effect)) | 1 (Herbicidal ratio of 5% or more and less than 20%) | 0 (Herbicidal ratio of 5% or less (almost no effect)) | 5 (Herbicidal ratio of 90% or more (almost completely withered)) | 1 (Herbicidal ratio of 5% or more and less than 20%) | 3 (Herbicidal ratio of 40% or more and less than 70%) | 3 (Herbicidal ratio of 40% or more and less than 70%) | 3 (Herbicidal ratio of 40% or more and less than 70%) | 4 (Herbicidal ratio of 70% or more and less than 90%) | – | – | – | – | – | – | – | – | –
